# Experimental data as given in patent US11083724B2, “Rimegepant for CGRP related disorders” (Biohaven Pharmaceutical Holding Company Ltd., priority 2018, dated 2021).
# Tested on: subjects with Acute Migraines
# Assay: Study 303 (BHV3000-303, NCT03461757): Phase 3 double-blind placebo-controlled trial, rimegepant 75 mg ODT, acute treatment of migraine
# Type: in vivo, human
# Procedure: Clinical Trial—BHV3000-303: Phase 3: Double-Blind, Randomized, Placebo-Controlled, Safety and Efficacy Trial of BHV-3000 (Rimegepant) Orally Discintegrating Tablet (ODT) for the Acute Treatment of Migraine (ClinicalTrials.gov Identifier: NCT03461757) A phase 3 clinical study was conducted with 1812 participants, as follows. The purpose of this study is to compare the efficacy of BHV-3000 (rimegepant ODT) versus placebo in subjects with Acute Migraines. Study Design • Study Type: Interventional (Clinical Trial) • Actual Enrollment: 1812 participants • Allocation: Randomized • Intervention Model: Parallel Assignment • Masking: Triple (Participant, Care Provider, Investigator) • Primary Purpose: Treatment • Official Title: BHV3000-303: Phase 3, Double-Blind, Randomized, Placebo Controlled, Safety and Efficacy Trial of BHV-3000 (Rimegepant) Orally Disintegrating Tablet (ODT) for the Acute Treatment of Migraine • Actual Study Start Date: Feb. 27, 2018 • Actual Primary Completion Date: Oct. 8, 2018 • Actual Study Completion Date: Oct. 15, 2018 Arms and Interventions Outcome Measures Primary Outcome Measures: 1. Pain freedom of rimegepant compared with placebo in the acute treatment of migraine will be measured using the number of evaluable subjects that report no pain at 2 hours post-dose. [Time Frame: Two hours post dose] Pain will be measured on a 4 point Likert scale (0=none, 1=mild, 2=moderate, 3=severe) 2. Freedom from the most bothersome symptom (MBS) of rimegepant compared with placebo will be measured using the number of evaluable subjects that report the absence of their MBS at 2 hours post-dose. [Time Frame: Two hours post dose] The MBS (nausea, phonophobia or photophobia) will measured using a binary scale (0=absent, 1=present). Secondary Outcome Measures: 1. To measure rimegepant compared to placebo on Pain Relief, at 2 hours post-dose, that report a pain level of moderate or severe at baseline and then report a pain level of none or mild. [Time Frame: 2 hours post-dose] Pain Relief as measured by a 4 point numeric rating scale (None, Mild, Moderate, Severe) 2. Functional disability scale [Time Frame: 2 hour post-dose] Subjects self-report “normal” on the functional disability scale 3. […] [Time Frame: 2 hours-24 hours post-dose] Sustained Pain Relief as measured by a 4 point numeric rating scale (None, Mild, Moderate, Severe) 4. […] [Time Frame: 2 to 24 hours post dose] Most bothersome symptom 5. To measure rimegepant compared to placebo on the probability of requiring rescue medication will be assessed using the number of subjects that take rescue medication within […] administration of study medication (BHV3000 or placebo). [Time Frame: up to 24 hours post-dose] Requiring Rescue Medication 6. Sustained ability to function at a normal level as measured by the Functional disability scale [Time Frame: 2 to 24 hours post dose] Subjects self-report “normal” on the functional disability scale 7. […] [Time Frame: 2 hours-48 hours post-dose] Sustained Pain Relief as measured by a 4 point numeric rating scale (None, Mild, Moderate, Severe) 8. Rimegepant compared to placebo on pain freedom from most bothersome symptom from 2-48 hours post dose. [Time Frame: 2 to 48 hours post dose] Most bothersome symptom 9. Sustained ability to function at a normal level as measured by the Functional disability scale [Time Frame: 2 to 48 hours post dose] Subjects self-report “normal” on the functional disability scale 10. Rimegepant compared to placebo by tabulating the number of subjects that report the absence of photophobia at 2 hours post-dose in the subset of subjects that reported the presence of photophobia at headache baseline [Time Frame: 2 hours post-dose] Freedom from Photophobia 11. Functional disability scale [Time Frame: 90 minutes post dose] Subjects self-report “normal” on the functional disability scale 12. […] [Time Frame: 90 minutes post dose] Pain Relief as measured by a 4 point numeric rating scale (None, Mild, Moderate, Severe) 13. […]
# [1] = Study 303, n = 669, exploratory
# [2] = Study 303, single 75 mg ODT, N = 669
compound,measurement,setting,value
"N[C@@H]1c2cccnc2[C@H](OC(=O)N2CCC(n3c(=O)[nH]c4ncccc43)CC2)CC[C@H]1c1cccc(F)c1F [Rimegepant, [(5S,6S,9R)-5-amino-6-(2,3-difluorophenyl)-6,7,8,9-tetrahydro-5H-cyclohepta[b]pyridin-9-yl] 4-(2-oxo-3H-imidazo[4,5-b]pyridin-1-yl)piperidine-1-carboxylate]","Freedom from MBS at 2 hours, Difference (rimegepant minus placebo)",Study 303,8.3%
same,"Pain Freedom at 2 hours, Difference (rimegepant minus placebo)",Study 303,10.3%
same,incidence of any single adverse event (AE) in the rimegepant group,Study 303,≤ 1.6%
same,patients with LFTs >3×ULN,Study 303,one
same,Sustained Pain Relief 3 to 48 hrs,"Study 303, n = 669",49.9%
same,Sustained Pain Relief 3 to 24 hrs,[1],56.4%
same,Sustained Pain Relief 4 to 24 hrs,[1],61.7%
same,Sustained Pain Relief 4 to 48 hrs,[1],54.7%
same,Pain Relief @ 2 hours,"Study 303, secondary 1",59.3%
same,Functional Disability at 2 hours,"Study 303, secondary 2, self-report normal",38.1%
same,SP Relief (Sustained Pain Relief) 2 to 24 hours,"Study 303, secondary 3",47.8%
same,MBS 2 to 24,"Study 303, secondary 4, sustained freedom from MBS",27.1%
same,Prob of Rescue Meds in 24 hours,"Study 303, secondary 5",14.2%
same,Functional Disability 2 to 24,"Study 303, secondary 6",29.6%
same,SP Relief (Sustained Pain Relief) 2 to 48 hours,"Study 303, secondary 7",42.2%
same,MBS 2 to 48,"Study 303, secondary 8",23.2%
same,Functional Disability 2 to 48,"Study 303, secondary 9",26.0%
same,Photophobia @ 2 hours,"Study 303, secondary 10, freedom from photophobia",33.4%
same,Functional Disabilty @ 90 minutes,"Study 303, secondary 11",30.2%
same,Pain Relief @ 90 minutes,"Study 303, secondary 12",49.6%
same,SP Freedom 2 to 24 hours,"Study 303, secondary 13",15.7%
same,MBS Freedom at 90 minutes,"Study 303, secondary 14",27.4%
same,Pain Freedom @ 90 minutes,"Study 303, secondary 15",15.1%
same,Phonophobia @ 2hours,"Study 303, secondary 16, freedom from phonophobia",41.7%
same,SP Freedom 2 to 48 hours,"Study 303, secondary 17",13.5%
same,Pain Relief at 60 minutes,"Study 303, secondary 18",36.8%
same,Functional Disability at 60 minutes,"Study 303, secondary 19",22.3%
same,Nausea @ 2 hours,"Study 303, secondary 20, freedom from nausea",51.0%
same,Pain Relpase 2 to 48,"Study 303, secondary 21",36.6%
same,Freedom from MBS at 2 hours,[2],35.1%
same,Pain Freedom at 2 hours,[2],21.2%
same,"clinical benefit through 48 hours on pain relief, pain freedom, most bothersome symptom, functional disability","Study 303, single dose, versus placebo",Lasting clinical benefit
